Results on ten compounds are retold here after ChEMBL document CHEMBL1201862, “PubChem BioAssay data set” (2004).

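How tested: cells in 96-well plates exposed to compound for 48 hours at five concentrations. GI50 is the concentration that inhibits growth by half.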 The source made the active and inactive calls. No stated cut-off is given here; in the data, active = GI50 up to about 1.1 µM and inactive = higher.

Usually GI50 stands for the concentration giving 50% growth inhibition.

What all share (test): DTP human tumour cell line panel, 48 h
Test [1] concerns A549.
In test [2] the test system is MCF7.
Test [3] relates to A498.
Test [4] has as its system SK-MEL-5.
Test [5] deals with RXF 393.
The subject of test [6] is COLO 205.
In test [7] the test system is Hs-578T.
The test system of test [8] is TK-10.
The test system of test [9] is LOX IMVI.
The test system of test [10] is MDA-MB-231.
Test [11] has as its system OVCAR-5.
The test system of test [12] is SK-MEL-2.
Test [13] deals with NCI-H226.
Test [14] relates to SNB-19.
In test [15] the test system is DU-145.
In test [16] the test system is SK-MEL-28.
Test [17] relates to KM12.
In test [18] the test system is HCC 2998.
The subject of test [19] is OVCAR-8.
Test [20] relates to SR.

As to `CC(=O)Oc1c(-c2ccccc2)sc2ccccc12`, the GI50 was 20.6 µM (inactive) in test [1]; 27.6 µM (inactive) in [2]; 17.8 µM (inactive) in test [3]; 18.5 µM (inactive) in [4]; 13.6 µM (inactive) in test [5]; 15.6 µM (inactive) in test [6]. The GI50 was 19.6 µM (inactive) in test [7]; 22.6 µM (inactive) in test [8]; 13.5 µM (inactive) in test [9]; 14 µM (inactive) in [10]; 29.2 µM (inactive) in test [11]; 13.3 µM (inactive) in test [12]. Further, the GI50 in test [13] was 13.3 µM (inactive); in test [14], 34.4 µM (inactive); in test [15] it was 14.1 µM (inactive); in test [16], 21.3 µM (inactive); in [17], 18.4 µM (inactive); in [18] it was 17.1 µM (inactive). For the same compound, the GI50 in test [19] was 27.2 µM (inactive); in [20], 10.1 µM (inactive).
With `CC(=O)c1ccc(Oc2c3ccccc3nc3ccccc23)cc1`, the GI50 is 9.35 µM (inactive) in [1]; 3.22 µM (inactive) in [2]; 16.1 µM (inactive) in test [3]; 14.9 µM (inactive) in test [4]; 7.91 µM (inactive) in [5]; 2.79 µM (inactive) in [6]. Also, the GI50 in test [7] is 8.61 µM (inactive); in [8] it was 6.76 µM (inactive); in test [9], 5.86 µM (inactive); in test [10], 11.6 µM (inactive); in [11], 9.68 µM (inactive); in test [12] it was 8.59 µM (inactive). The GI50 in test [13] was 9.1 µM (inactive); in test [14], 18.7 µM (inactive); in [15], 4.5 µM (inactive); in test [16], 14.7 µM (inactive); in test [17], 7 µM (inactive); in [18] it was 9.48 µM (inactive). For the same compound, the GI50 is 7.83 µM (inactive) in test [19] and 1.01 µM (active) in test [20].
For `COc1ccc(OC)c2c1-c1nnnn1CCC2(C)C`, the GI50 in [2], in test [3], in test [5], in test [6], in test [7] and in test [8] was > 100 µM (inactive) throughout. Besides, the GI50 in [9], in [10], in test [11], in test [12], in [13] and in test [14] was > 100 µM (inactive) throughout. The GI50 in [15], in test [16], in test [17], in [18], in test [19] and in test [20] was > 100 µM (inactive) in each case.
Take `Nc1ccc2c(SCC(=O)Nc3ccccc3-c3ccccc3NC(=O)CSc3c4ccccc4nc4cc(N)ccc34)c3ccccc3nc2c1`: the GI50 in test [1] is 41 µM (inactive); in [2] it was 12.4 µM (inactive); in test [3], 29.9 µM (inactive); in [4], 14.6 µM (inactive); in test [5], 34.9 µM (inactive); in test [6] it was 14.2 µM (inactive). For the same compound, the GI50 in test [7] is > 59.3 µM (inactive); in test [8], 38 µM (inactive); in [9], 22.9 µM (inactive); in [10], > 50.4 µM (inactive); in [11], 70 µM (inactive); in test [12], 25.6 µM (inactive). Also, the GI50 is 29.3 µM (inactive) in test [13]; 18.9 µM (inactive) in test [14]; 24.2 µM (inactive) in test [15]; 21.8 µM (inactive) in test [16]; 19.5 µM (inactive) in test [17]; 36.1 µM (inactive) in test [18]. For the same compound, the GI50 in test [19] is 26.3 µM (inactive); in [20] it was 4.19 µM (inactive).
For `O=C1c2cccc3cccc(c23)C(=O)N1CCCNCCCCNCCCN1C(=O)c2cccc3cccc(c23)C1=O`, the GI50 was 0.0495 µM (active) in test [1]; < 0.0138 µM (active) in test [2]; 0.946 µM (active) in test [3]; 0.644 µM (active) in test [4]; 0.0933 µM (active) in [5]; 0.192 µM (active) in test [6]. The GI50 in test [7] is 0.0401 µM (active); in test [8] it was 1.57 µM (inactive); in test [9], 0.0229 µM (active); in test [10], 0.137 µM (active); in test [11], 0.316 µM (active); in [12] it was 0.521 µM (active). Besides, the GI50 in [13] was 0.748 µM (active); in test [14], 0.124 µM (active); in test [15], 0.0887 µM (active); in test [16] it was 0.238 µM (active); in test [17], 0.108 µM (active); in test [18], 0.0755 µM (active). In addition, the GI50 in [19] was 0.177 µM (active); in test [20], < 0.01 µM (active).
Regarding `Cc1oc2nc(N(C)C)n3nnnc3c2c1C`, the GI50 in [1] was > 100 µM (inactive); in test [2], > 100 µM (inactive); in test [3], 76.2 µM (inactive); in test [4], > 100 µM (inactive); in test [5] it was 57.4 µM (inactive); in [6], > 100 µM (inactive). Further, the GI50 in test [7], in [8], in [9], in [10], in [11] and in [13] was > 100 µM (inactive) throughout. The GI50 in test [14] is > 100 µM (inactive); in [15] it was > 100 µM (inactive); in test [16] it was > 100 µM (inactive); in test [17], > 100 µM (inactive); in test [18] it was > 100 µM (inactive); in test [19], 76 µM (inactive). Further, the GI50 in test [20] is > 10 µM (inactive).
`CC1(C)CC(=O)c2c([nH]c(=S)c(C#N)c2-c2ccc(Br)cc2)C1`: the GI50 was 56.2 µM (inactive) in [1]; 40.7 µM (inactive) in [2]; 54 µM (inactive) in test [3]; 46.9 µM (inactive) in test [4]; 33.7 µM (inactive) in test [5]; > 10 µM (inactive) in [6]. For the same compound, the GI50 in [7] was 29 µM (inactive); in test [8] it was 81.8 µM (inactive); in test [9], 57.5 µM (inactive); in [10], 92.5 µM (inactive); in test [11], > 100 µM (inactive); in [12], 24.9 µM (inactive). Moreover, the GI50 in test [13] is 46.8 µM (inactive); in test [14], 45.5 µM (inactive); in test [15] it was 61 µM (inactive); in test [16] it was 44.1 µM (inactive); in test [18], 35.8 µM (inactive); in test [19] it was 49.9 µM (inactive). For the same compound, in [20], the GI50 is 22.8 µM (inactive).
As for `O=S(=O)(c1cc(Cl)ccc1Cl)N1CCN(c2cccc(Cl)c2)CC1`, the GI50 in [1] was > 100 µM (inactive); in test [2], > 100 µM (inactive); in test [3], > 100 µM (inactive); in test [4], 52.6 µM (inactive); in [5] it was > 100 µM (inactive); in [7], > 100 µM (inactive). Further, the GI50 in test [8], in [9], in [10], in test [11], in test [13] and in test [14] was > 100 µM (inactive) each time. The GI50 in test [15], in test [16], in test [17], in test [18], in test [19] and in test [20] was > 100 µM (inactive) each time.
Consider `O=C1NC(=S)NC1C(Cc1ccccc1)c1ccco1` (stereo unspecified), for which the GI50 in [1] is > 100 µM (inactive); in test [2] it was 6.76 µM (inactive); in test [3], > 100 µM (inactive); in [4], > 100 µM (inactive); in test [5], > 100 µM (inactive); in test [6], > 100 µM (inactive). Besides, the GI50 in test [7], in test [8], in test [9], in test [10], in test [11] and in [13] was > 100 µM (inactive) each time. Also, the GI50 in [14], in test [15], in [16], in test [17], in test [18] and in test [19] was > 100 µM (inactive) each time. Also, in test [20], the GI50 is 75.3 µM (inactive).
Regarding `Cc1cccc(N2C(=O)C3c4[nH]c5ccccc5c4C4CCC(C(C)(C)C)CC4C3C2=O)c1C` (stereo unspecified), the GI50 is 47 µM (inactive) in [1]; > 100 µM (inactive) in [2]; > 100 µM (inactive) in [3]; > 100 µM (inactive) in test [4]; > 100 µM (inactive) in test [5]; > 100 µM (inactive) in [6]. Also, the GI50 in [7] was 25.8 µM (inactive); in test [8] it was > 100 µM (inactive); in test [9], > 100 µM (inactive); in test [10], 19 µM (inactive); in [11], > 100 µM (inactive); in test [12] it was > 100 µM (inactive). In addition, the GI50 in test [13] is > 100 µM (inactive); in test [14], > 100 µM (inactive); in test [15], > 100 µM (inactive); in [18], > 100 µM (inactive); in test [19] it was 38.9 µM (inactive); in test [20] it was > 100 µM (inactive).
